17 compounds from the Deep4Chem optical property database can be followed below.

The nature of this series: solvent given as SMILES.

For `Cc1nc2ccc(/C=C/c3ccc(N(C)C)cc3)cc2nc1-c1ccccc1`, the emission maximum worked out at 526 nm (in C1COCCO1), 641 nm (in CC#N) and 590 nm (in ClCCl).

For the compound `COc1ccc2c(c1)-c1cc3c(cc1[Si]2(c1ccccc1)c1ccccc1)-c1ccccc1[Si]3(c1ccccc1)c1ccccc1`, the emission maximum (in ClCCl) came to 397 nm.

For `Nc1ccc2c3c(cccc13)C(=O)c1ccccc1-2`, the emission maximum reads like this: (in CC#N) 626.17 nm; (in CC(C)=O) 610.13 nm; (in CC(C)O) 664.89 nm; (in CCCCOCCCC) 570.13 nm; (in CCOC(C)=O) 592.07 nm; (in CCOCC) 585.14 nm. In addition, the emission maximum reads like this: (in CO) 667.11 nm; (in Cc1ccccc1) 569.15 nm; (in Clc1ccccc1) 579.04 nm; (in N#Cc1ccccc1) 610.13 nm; (in O=C1CCCCC1) 610.13 nm.

As to `Cc1cc(O)c(C(C)C)cc1/N=C/c1ccc(O)cc1`, the emission maximum amounted to 400 nm (in C1CCCCC1); 406 nm (in C1CCOC1); 405 nm (in C1COCCO1); 411 nm (in CC#N); 410 nm (in CC(C)(C)O); 412 nm (in CC(C)O). The emission maximum reads like this: (in CCCCCC) 399 nm; (in CCCCO) 414 nm; (in CCO) 414 nm; (in CCOC(C)=O) 405 nm; (in CN(C)C=O) 409 nm; (in CO) 416 nm. Further, the emission maximum by setting is: (in CS(C)=O) 415 nm; (in ClC(Cl)Cl) 401 nm; (in ClCCl) 412 nm; (in O) 452 nm; (in OCCO) 421 nm.

The compound `COc1ccc(C2=C(C)C3=C(c4c(-c5ccccn5)nc5ccccn45)c4c(C)cc(C)n4[B-](F)(F)[N+]3=C2C)cc1` displayed an emission maximum (in ClCCl) of 592 nm.

`COc1ccc2cc(/C=C/C3=C4CCc5ccccc5C4=[O+][B-](F)(F)O3)ccc2c1` gave an emission maximum (in ClCCl) of 564 nm.

As for `CCCCCCCCOc1ccc(C#Cc2ccc(C#Cc3ccc(OCCCCCCCC)c(OCCCCCCCC)c3)c3nc4c5ccccc5c5ccccc5c4nc23)cc1OCCCCCCCC`, the emission maximum is listed as 558 nm (in C1CCOC1), 541 nm (in Cc1ccccc1) and 566 nm (in ClCCl).

Consider `CCN(CC)c1ccc(C2=C3C(C)=CC(C)=[N+]3[B-](F)(F)n3c(C)cc(C)c32)cc1`, for which the emission maximum (in CO) was found to be 513 nm.

Turning to `COCCC1=Cc2nc1ccc1[nH]c(cc1CCOC)c1nc(ccc3[nH]c2cc3CCOC)C(CCOC)=C1`, where the note is “in Cc1ccccc1”, the emission maximum amounted to 642 nm.

For `CCn1c2ccccc2c2cc(C#Cc3cc(C#Cc4ccc5c(c4)c4ccccc4n5CC)nc(OC)n3)ccc21`, the emission maximum was 445 nm (in C1CCOC1); 442 nm (in CCOC(C)=O); 499 nm (in CN(C)C=O); 411 nm (in Cc1ccccc1); 467 nm (in ClCCl).

Consider `C(=C\c1ccc(Nc2ccccc2)cc1)/c1ccccc1`, for which the emission maximum is, setting by setting: (in CC#N) 436 nm; (in CCCCCC) 378 nm.

`F[Si](c1ccccc1)(c1c2ccccc2cc2ccccc12)c1c2ccccc2cc2ccccc12` returned an emission maximum (in C1CCOC1) of 409 nm.

For `Clc1cc(Cl)c(B2c3ccccc3Nc3ccccc32)c(Cl)c1`, the emission maximum (in ClCCl) is given as 413 nm.

`CN(C)c1ccc2cc3ccc(N(C)C)cc3nc2c1` came in with an emission maximum (in O) of 530 nm.

Where the note is “in ClCCl”, `C[Si]1(C)O[Si](C)(C)c2cc3c(-c4ccccc4F)c4cc(Cl)ccc4nc3cc21` yielded an emission maximum of 498 nm.

Take `CCC(CC)COC1=CC2=C3c4cc(OCC(CC)CC)c(-c5cccs5)n4[B-](F)(F)[n+]4c3n(c3cc(C(C)(C)C)ccc34)[B-](F)(F)[N+]2=C1c1cccs1`: the emission maximum (in C1CCOC1) is recorded as 809 nm and the emission maximum (in ClCCl) is listed as 811 nm.

Consider `C[Si](C)(C)C#CC#Cc1ccc2c3cccc4cccc(c5cccc1c52)c43`, for which the emission maximum (in C1CCCCC1) is listed as 477.08 nm.
